How the values were obtained:
[1] = system: Human lymphocytes; assay: Immunosuppressive activity, 3H-thymidine incorporation in concanavalin A activated lymphocytes; type: cell-based; conditions: 72 hours, [3H]-TdR incorporation, read-out: Human lymphocytes ED50
Description: One of the most important parameters of specific cellular immunity is the proliferative response of lymphocytes to antigens or polyclonal mitogens. The majority of normal mammalian peripheral lymphocytes comprise resting cells. Antigens or nonspecific polyclonal mitogens have the capacity to activate lymphoid cells and this is accompanied by dramatic changes of intracellular metabolism (mitochondrial activity, protein synthesis, nucleic acids synthesis, formation of blastic cells and cellular proliferation). […] Variety of in vitro assays was developed to measure proliferative response of lymphocytes. The most commonly used is ^3H-thymidine incorporation method.
During cell proliferation, DNA has to be replicated before the cell is divided into two daughter cells. This close association between cell doublings and DNA synthesis is very attractive for assessing cell proliferation. If labelled DNA precursors are added to the cell culture, cells that are about to divide incorporate the labelled nucleotide into their DNA. Traditionally, those assays usually involve the use of radiolabelled nucleosides, particularly tritiated thymidine ([^3H]-TdR). The amount of [^3H]-TdR incorporated into the cellular DNA is quantified by liquid scintillation counting.
Human heparinized peripheral blood was obtained from healthy volunteers by cubital vein punction. The blood was diluted in PBS (1:3) and mononuclear cells were separated by centrifugation in Ficoll-Hypaque density gradient (Pharmacia, 1.077 g/ml) at 2200 rpm for 30 minutes. Following centrifugation, lymphocytes were washed in PBS and resuspended in cell culture medium (RMPI 1640, 2 mM glutamine, 100 U/ml penicillin, 100 μg/ml streptomycin, 10% fetal calf serum and sodium bicarbonate).
The cells were diluted at target density of 1.100.000 cells/ml and were added by pipette (180 μl) into 96-well microtiter plates. Four-fold dilutions of the intended test concentration were added at time zero in 20 μl aliquots to the microtiter plate wells. Usually, test compound was evaluated at six 4-fold dilutions. In routine testing, the highest well concentration was 266.7 μM. All drug concentrations were examined in duplicates. All wells with exception of unstimulated controls were activated with 50 μl of concanavalin A (25 μg/ml). Incubations of cells with test compounds lasted for 72 hours at 37° C., in 5% CO2 atmosphere and 100% humidity. At the end of incubation period, the cells were assayed by using the [^3H]-TdR:
Cell cultures were incubated with 0.5 μCi (20 μl of stock solution 500 μCi/ml) per well for 6 hours at 37° C. and 5% CO2. The automated cell harvester was used to lyse cells in water and adsorb the DNA onto glass-fiber filters in the format of microtiter plate. The DNA incorporated [^3H]-TdR was retained on the filter while unincorporated material passes through. The filters were dried at room temperature overnight, sealed into a sample bag with 10-12 ml of scintillant. The amount of [^3H]-TdR present in each filter (in cpm) was determined by scintillation counting in a Betaplate liquid scintillation counter. The effective dose of immunosuppressant (ED) was calculated using the following equation: ED=(CCPMdrug exposed well/mean CCPMcontrol wells)×100%. The ED50 value, the drug concentration inhibiting proliferation of 50% of lymphocytes, was calculated from the obtained dose response curves.
To evaluate immunosuppressive activity of substituted adenines, their ability to inhibit polyclonal mitogen induced proliferation of normal human lymphocytes was analyzed (Table 4). […] Effective immunosuppressive dose of new derivatives under in vitro conditions was close to 10-40 μM.

[2] = system: K-562 (human erythroleukemia); assay: Calcein AM cytotoxicity assay, K-562; type: cell-based; conditions: 72 hours incubation
Description: (§1) Because toxic compounds negatively influence metabolic processes in cells, many standard cytotoxicity assays are based on measurement of metabolisation rate of various artificial substrates. Resulting product is then quantified e.g. by means of spectrometry. The assays can be easily modified for use in 96-well plates. For evaluation of cytotoxic effect of the novel substituted 9-substituted cytokinin derivatives of this invention, a microtiter assay based on quantification of metabolisation of Calcein AM was used. The assay is widely used in drug screening programs and in chemosensitivity testing. In the living cells, Calcein AM is enzymatically hydrolysed and accumulation of resulting calcein is manifested by green fluorescence.
(§2) In the routine screening the following cell lines have been used: CEM (T-lymphoblastoid leukemia), HL-60 (promyelocytic leukemia), K-562 (human erythroleukemia), MCF-7 (breast carcinoma), HOS (human osteogenic sarcoma), and G-361 (human malignant melanoma). Normal human fibroblasts BJ were used as a control for routine screening of the compounds. The cells were kept in Nunc/Corning 80 cm^2 plastic bottles and grown in cell culture medium (DMEM containing 5 g/l glucose, 2 mM glutamine, 100 U/ml penicilline, 100 μg/ml streptomycine, 10% fetal bovine serum and sodium hydrogencarbonate), the compounds were prepared according to the procedure of the present invention.
(§3) The cell suspensions were prepared and diluted according to the particular cell type and the expected target cell density (2.500-30.000 cells per well based on cell growth characteristics) and pippetted (80 μl) into 96-well plates. Inoculates were allowed a pre-incubation period of 24 hours at 37° C. and 5% CO2 for stabilisation. Tested compound was added in total volume of 20 μl of water at time zero. Usually, test compound was evaluated at six 3-fold dilutions. In routine testing, the highest concentration tested was 166.7 μM. All drug concentrations were tested in triplicates. Incubations of cells with the test compounds lasted for 72 hours at 37° C., in 5% CO2 atmosphere and 100% humidity. At the end of incubation period Calcein AM in PBS was added into final concentration of 1 μg/ml. After another 1 hour of incubation fluorescence (FD) was measured with the Labsystem FIA Reader Fluoroscan Ascent (Microsystems). Tumor cell survival (TCS) was estimated using the following equation: […]=(FDdrug exposed well/FDcontrol well)×100%. The GI50 value, the drug concentration causing 50% reduction of esterase activity, was calculated from the obtained dose response curves (FIG. 1).
(§4) Cytoxicity of novel compounds was tested on panel of cell lines of different histogenetic and species origin (Table 3). […] The effective novel derivatives killed tumour cells in concentrations close to 0.1-50 μM.

[3] = system: MCF-7 (breast carcinoma); assay: Calcein AM cytotoxicity assay, MCF7; type: cell-based; conditions: 72 hours incubation
Description: as §1, §2, §3, §4

[4] = system: HOS (human osteogenic sarcoma); assay: Calcein AM cytotoxicity assay, HOS; type: cell-based; conditions: 72 hours incubation
Description: as §1, §2, §3, §4

[5] = system: CEM (T-lymphoblastoid leukemia); assay: Calcein AM cytotoxicity assay, CEM; type: cell-based; conditions: 72 hours incubation, Calcein AM
Description: as §1, §2, §3, §4

[6] = system: cytokinin-dependent tobacco callus Nicotiana tabacum L. cv. Wisconsin 38; assay: Growth of cytokinin-dependent tobacco callus; type: cell-based; conditions: for Activity (%) [10^−5 mol · l^−1 KR = 100%]: at concentration with highest activity, relative to control cytokinin; for Concentration with highest activity: tobacco callus fresh weight after four weeks
Procedure: Cytokinin effect of newly prepared derivatives was tested using cytokinin-dependent tobacco callus. The cytokinin-dependent tobacco callus Nicotiana tabacum L. cv. Wisconsin 38 was maintained at 25° C. in darkness on modified MS medium, containing per 1 liter: 4 μmol of nicotinic acid, 2.4 μmol of pyridoxine hydrochloride, 1.2 μmol of thiamine, 26.6 μmol of glycine, 1.37 μmol of glutamine, 1.8 μmol of myo-inositol, 30 g of sucrose, 8 g of agar, 5.37 μmol of NAA and 0.5 μmol of the compound tested. Subcultivation was carried out every three weeks. Fourteen days before the bioassay, the callus tissue was transferred to the media without 6-benzylaminopurine. The biological activity was determined from the increase of the fresh callus weight after four weeks of cultivation. Five replicates were prepared for each concentration of the compound tested and the entire test was repeated twice. […] The compounds to be tested were dissolved in dimethylsulfoxide (DMSO) and the solution brought up to 10^−3 M with distilled water. […] The stimulatory activity was calculated from the dose-dependent fresh weight callus growth curves.
From the obtained data, the concentration with the highest activity was selected for each compound tested. Relative activity of the compound at this concentration was calculated (Table 5). […]

[7] = system: HL-60 (promyelocytic leukemia); assay: Calcein AM cytotoxicity assay, HL60; type: cell-based, human; conditions: 72 hours incubation
Description: as §1, §2, §3, §4

[8] = system: Normal human fibroblasts BJ; assay: Calcein AM cytotoxicity assay, BJ; type: cell-based; conditions: 72 hours incubation
Description: as §1, §2, §3, §4

[9] = system: G-361 (human malignant melanoma); assay: Calcein AM cytotoxicity assay, G-361; type: cell-based; conditions: 72 hours incubation
Description: as §1, §2, §3, §4

SMILES	EC50 [1] [µM]	GI50 [2] [µM]	GI50 [3] [µM]	GI50 [4] [µM]	GI50 [5] [µM]	Activity (%) [10^−5 mol · l^−1 KR = 100%] [6] [%]	Concentration with highest activity [6]	GI50 [7] [µM]	GI50 [8] [µM]	GI50 [9] [µM]
O=P(O)(O)OC[C@H]1O[C@@H](n2cnc3c(NCc4ccccc4F)ncnc32)[C@H](O)[C@@H]1O [Compound 1, 6-(2-fluorobenzylamino)purine riboside-5′-monophosphate]	6.3	33.2	> 167	> 167	4.6	100 ± 9	10^−6 mol · l^−1	3.2		
O=P(O)(O)OC[C@H]1O[C@@H](n2cnc3c(NCc4cc(Cl)ccc4O)ncnc32)[C@H](O)[C@@H]1O [Compound 47, 6-(2-hydroxy-5-chlorobenzylamino)purine riboside-5′-monophosphate]		15.7	18	10.6	0.6			0.47	63.4	12.5
O=P(O)(O)OC[C@H]1O[C@@H](n2cnc3c(NCc4ccc(O)c(O)c4)ncnc32)[C@H](O)[C@@H]1O [3,4-dihydroxybenzylamino, 6-(3,4-dihydroxybenzylamino)purine riboside-5′-monophosphate]	9.4									
O=P(O)(O)OC[C@H]1O[C@@H](n2cnc3c(NCc4ccccc4Cl)ncnc32)[C@H](O)[C@@H]1O [Compound 4, 6-(2-chlorobenzylamino)purine riboside-5′-monophosphate]	8.7	64	> 167	> 167	14.5	121 ± 4	10^−6 mol · l^−1	1.6	> 167	
COc1ccc(O)c(CNc2ncnc3c2ncn3[C@@H]2O[C@H](COP(=O)(O)O)[C@@H](O)[C@H]2O)c1 [Compound 29, 6-(2-hydroxy-5-methoxybenzylamino)purine riboside-5′-monophosphate]		15.4	21	6.4	0.9			0.54	87.9	12.3
Cc1ccccc1CNc1ncnc2c1ncn2[C@@H]1O[C@H](COP(=O)(O)O)[C@@H](O)[C@H]1O [Compound 12, 6-(2-methylbenzylamino)purine riboside-5′-monophosphate]	7.3	> 167	> 167	> 167	14	108 ± 4	10^−6 mol · l^−1	3.3	> 167	
O=P(O)(O)OC[C@H]1O[C@@H](n2cnc3c(NCc4ccc(Cl)cc4)ncnc32)[C@H](O)[C@@H]1O [Compound 6, 6-(4-chlorobenzylamino)purine riboside-5′-monophosphate]	3.3	16.1	> 167	> 167	6.5			5.3	> 167	
O=P(O)(O)OC[C@H]1O[C@@H](n2cnc3c(NCc4ccc(F)cc4)ncnc32)[C@H](O)[C@@H]1O [Compound 3, 6-(4-fluorobenzylamino)purine riboside-5′-monophosphate]	13.4	6.4	14	20	1.5			0.86	> 167	
Cc1cccc(CNc2ncnc3c2ncn3[C@@H]2O[C@H](COP(=O)(O)O)[C@@H](O)[C@H]2O)c1 [Compound 13, 6-(3-methylbenzylamino)purine riboside-5′-monophosphate]	7.5	> 167	> 167	> 167	19.1			6.4	> 167	
COc1ccc(CNc2ncnc3c2ncn3[C@@H]2O[C@H](COP(=O)(O)O)[C@@H](O)[C@H]2O)c(O)c1 [2-hydroxy-4-methoxybenzylamino, 6-(2-hydroxy-4-methoxybenzylamino)purine riboside-5′-monophosphate]	2.1									
O=P(O)(O)OC[C@H]1O[C@@H](n2cnc3c(NCc4cccc(Cl)c4O)ncnc32)[C@H](O)[C@@H]1O [2-hydroxy-3-chlorobenzylamino, 6-(2-hydroxy-3-chlorobenzylamino)purine ribo side-5′-monophosphate]	3.2									
O=P(O)(O)OC[C@H]1O[C@@H](n2cnc3c(NCc4cccc(Cl)c4)ncnc32)[C@H](O)[C@@H]1O [Compound 5, 6-(3-chlorobenzylamino)purine riboside-5′-monophosphate]	3.2	30.4	> 167	> 167	1.6	109 ± 5	10^−5 mol · l^−1	0.75	> 167	

Source: patent US9073961B2, “Substitution derivatives of N6 -benzyladenosine-5′-monophosphate, methods of preparation thereof, use thereof as medicaments, and therapeutic preparations containing these compounds” (UNIVERZITA PALACKEHO V OLOMOUCI, priority 2010, dated 2015)
